# System: HepG2 cells
# Assay: Determination of reactive oxygen species (ROS) in HepG2 indicator cells (ROS-Glo system)
# Format: cell-based
# Conditions: two hours or four hours of incubation, FIG. 4 and 5
# Description: The potential of Boswellia extract BSR037: LN00125 (Example 12) and Boswellia extract BSR037: LN00126 (Example 15) of inducing reactive oxygen species (ROS) was tested. The effects were compared with ROS generation upon exposure to positive control Menadione as well as two solvent ethanol. To this end, HepG2 cells were incubated in presence of different concentrations of the respective Boswellia extract for two hours. ROS levels were determined by using the ROS-Glo system (Promega). HepG2 cells were seeded in […] flat-bottom black microtiter plates at a density of 10000 cells per well, 100 μl per well, and allowed to attach to the plate for 24 hours. Test item dilutions were prepared in separate plates. The maximum concentration was a 1:100 dilution in media (final solvent concentration: 1% ethanol) followed by a 1:3 serial dilution in media containing 1% ethanol. […] Cells exposed to media containing 1% ethanol served as untreated control. After overnight adherence, media was completely removed from cells by vacuum aspiration and 80 μl of compound dilution, positive and negative controls were added to the cells. Test items were tested in two replicates per concentration (A and B). In independent experiments, ROS levels were measured after two hours of incubation (see FIG. 4A-D) or after four hours of incubation (see FIG. 5A-D), respectively).
smiles,measurement,value
CC1=CC(=O)c2ccccc2C1=O [Menadione],ROS induction,ROS induction was detected
